Measurements reported in US10800791B2, “Triazole ACC inhibitors and uses thereof” (Gilead Apollo, LLC, priority 2015, dated 2020).
Values after ≈ are worked out from the molar mass of the structure shown. Like-named read-outs stand apart in the source and are kept apart here.

Columns and labels:
[1] = target: human (hACC2) (Homo sapiens, UniProt O00763); experiment: In vitro ACC inhibition assay (ADP-Glo), hACC2; format: biochemical; details: 5 nM ACC2, 20 μM ATP, 20 μM acetyl-CoA
Protocol: The detailed procedure is as follows. […] 10 μL ADP glo reagent was added. […] 20 μL kinase detection reagent was added.

[2] = tested on: C. krusei; experiment: Antifungal Activity Assay (broth microtiter MIC), C. krusei; format: cell-based, Candida krusei; details: Pichia kudriavzevii, ATCC6258, 48 h
Summary of the method: (§1)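 MIC read by eye at 48 h, comparing challenged wells with the growth control. Yeasts grown overnight on Sabouraud dextrose agar at 35° C, suspended in RPMI 1640+MOPS and added at 2.5×10^3 CFU/mL final, following CLSI M27-A3.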

[3] = tested on: C. parapsilosis; experiment: Antifungal Activity Assay (broth microtiter MIC), C. parapsilosis; format: cell-based, Candida parapsilosis; details: Lodderomyces parapsilosis, ATCC22019, 48 h
Summary of the method: as §1

[4] = tested on: Botrtyis cinerea (Bc); experiment: Growth inhibition assay of fungal pathogens, Bc; format: cell-based; details: 48 h
Summary of the method: (§2)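 Spore suspension in 17% V8 liquid media; cpd final 50/10/2 or 2/0.4/0.08 ppm, 2% DMSO. OD600 + visual, 24 & 48 h; % inhibition at 48 h vs 2% DMSO ctrl.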

[5] = tested on: Fusarium moniliforme (Fm); experiment: Growth inhibition assay of fungal pathogens, Fm; format: cell-based; details: for IC90: Fusarium verticillioides, 48 h, read-out: Concentration at 90% Inhibition Fm
Summary of the method: as §2

[6] = tested on: Fusarium virguliforme (Fv); experiment: Growth inhibition assay of fungal pathogens, Fv; format: cell-based; details: 48 h
Summary of the method: as §2

[7] = tested on: Phytophthora capsici (Pc); experiment: Growth inhibition assay of fungal pathogens, Pc; format: cell-based; details: 48 h
Summary of the method: as §2

[8] = tested on: Rhizoctonia solani (Rs); experiment: Growth inhibition assay of fungal pathogens, Rs; format: cell-based; details: 48 h
[9] = tested on: Septoria tritici (St); experiment: Growth inhibition assay of fungal pathogens, St; format: cell-based; details: Zymoseptoria tritici, 48 h
Summary of the method: as §2

[10] = target: fungal (fACC2) (UniProt Q00955); details: read-out: fACC2 (in vitro ACC2 Inhibition Assay, IC50), ADP-Glo, 5 nM ACC2, 20 μM ATP, 20 μM acetyl-CoA
Sequence of fungal (fACC2) (Q00955 whole entry): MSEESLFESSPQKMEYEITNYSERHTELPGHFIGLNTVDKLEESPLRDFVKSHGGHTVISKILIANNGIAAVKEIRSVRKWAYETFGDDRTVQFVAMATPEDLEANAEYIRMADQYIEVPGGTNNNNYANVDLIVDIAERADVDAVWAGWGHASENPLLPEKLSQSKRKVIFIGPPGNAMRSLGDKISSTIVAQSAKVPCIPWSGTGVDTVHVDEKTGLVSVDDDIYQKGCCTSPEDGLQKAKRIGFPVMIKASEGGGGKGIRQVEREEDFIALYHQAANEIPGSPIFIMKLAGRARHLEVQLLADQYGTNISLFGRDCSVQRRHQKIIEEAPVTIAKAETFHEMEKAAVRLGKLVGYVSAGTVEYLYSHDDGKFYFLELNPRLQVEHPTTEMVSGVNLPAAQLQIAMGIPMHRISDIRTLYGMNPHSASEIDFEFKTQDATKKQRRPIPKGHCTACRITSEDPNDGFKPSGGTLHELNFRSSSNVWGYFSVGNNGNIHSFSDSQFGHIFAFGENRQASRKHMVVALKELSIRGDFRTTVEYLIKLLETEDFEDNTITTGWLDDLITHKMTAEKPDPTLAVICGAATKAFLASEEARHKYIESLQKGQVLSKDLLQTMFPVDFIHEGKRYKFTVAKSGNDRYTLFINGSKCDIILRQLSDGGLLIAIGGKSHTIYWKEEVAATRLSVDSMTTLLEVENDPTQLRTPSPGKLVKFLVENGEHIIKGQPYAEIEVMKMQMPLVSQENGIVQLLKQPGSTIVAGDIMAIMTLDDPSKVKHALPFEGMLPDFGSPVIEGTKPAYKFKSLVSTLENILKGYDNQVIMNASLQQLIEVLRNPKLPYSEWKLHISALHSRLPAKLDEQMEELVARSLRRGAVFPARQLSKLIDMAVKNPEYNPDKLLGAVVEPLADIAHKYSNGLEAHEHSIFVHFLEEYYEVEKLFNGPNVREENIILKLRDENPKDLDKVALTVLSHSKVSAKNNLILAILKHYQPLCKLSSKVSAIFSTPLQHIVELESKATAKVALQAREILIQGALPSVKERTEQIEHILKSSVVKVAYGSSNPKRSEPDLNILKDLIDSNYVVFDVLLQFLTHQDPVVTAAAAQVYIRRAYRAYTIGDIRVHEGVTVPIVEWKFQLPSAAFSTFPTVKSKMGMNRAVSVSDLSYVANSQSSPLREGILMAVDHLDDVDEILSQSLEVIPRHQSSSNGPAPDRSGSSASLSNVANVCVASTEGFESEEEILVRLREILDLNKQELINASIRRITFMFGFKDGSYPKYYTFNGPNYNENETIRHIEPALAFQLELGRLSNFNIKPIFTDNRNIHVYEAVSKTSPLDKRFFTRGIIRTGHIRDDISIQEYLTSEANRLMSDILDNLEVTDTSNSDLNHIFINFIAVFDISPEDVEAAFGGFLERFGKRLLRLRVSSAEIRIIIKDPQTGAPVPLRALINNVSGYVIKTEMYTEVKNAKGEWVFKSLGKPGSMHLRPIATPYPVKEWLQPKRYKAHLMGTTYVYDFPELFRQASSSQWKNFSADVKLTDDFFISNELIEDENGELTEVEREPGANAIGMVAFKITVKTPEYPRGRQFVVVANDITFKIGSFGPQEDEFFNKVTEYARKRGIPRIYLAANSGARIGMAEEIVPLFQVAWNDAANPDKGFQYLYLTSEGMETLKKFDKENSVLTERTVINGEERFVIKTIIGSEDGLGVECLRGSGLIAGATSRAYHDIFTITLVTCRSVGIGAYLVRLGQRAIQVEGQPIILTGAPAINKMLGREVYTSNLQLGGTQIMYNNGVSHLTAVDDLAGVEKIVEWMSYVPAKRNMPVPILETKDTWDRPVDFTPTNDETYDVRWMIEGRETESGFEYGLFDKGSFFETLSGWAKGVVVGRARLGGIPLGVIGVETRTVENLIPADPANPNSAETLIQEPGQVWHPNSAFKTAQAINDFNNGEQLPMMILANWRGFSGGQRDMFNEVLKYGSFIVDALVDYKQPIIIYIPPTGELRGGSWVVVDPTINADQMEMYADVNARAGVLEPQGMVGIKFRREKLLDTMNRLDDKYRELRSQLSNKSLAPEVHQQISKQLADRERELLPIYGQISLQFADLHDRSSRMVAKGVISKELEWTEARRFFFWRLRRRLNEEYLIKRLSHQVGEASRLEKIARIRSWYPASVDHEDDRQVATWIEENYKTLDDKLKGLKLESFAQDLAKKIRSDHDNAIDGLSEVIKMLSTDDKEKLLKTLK
Protocol: An exemplary procedure for the in vitro ACC inhibition assay, which can be used to determine the inhibitory action of compounds of the invention toward either human (hACC2) or fungal (fACC2), follows. The ADP-Glo™ Kinase Assay kit from Promega was used. The ADP-Glo™ Kinase Assay is a luminescent ADP detection assay to measure enzymatic activity by quantifying the amount of ADP produced during an enzyme reaction. The assay is performed in two steps; first, after the enzyme reaction, an equal volume of ADP-Glo™ Reagent is added to terminate the reaction and deplete the remaining ATP. Second, the Kinase Detection Reagent is added to simultaneously convert ADP to ATP and allow the newly synthesized ATP to be measured using a luciferase/luciferin reaction. Luminescence can be correlated to ADP concentrations by using an ATP-to-ADP conversion curve. […] 50 μL of the compound being tested (600 μM in DMSO) was added to a 384-well dilution plate. The compound was diluted 1:3 in succession in DMSO for each row for 11 wells. 0.5 μL ACC2 working solution was added to 384-well white Optiplate assay plate. 0.5 μL diluted compound solution in each column from step 2 was added to assay plate, each row containing 2 replicates. […] The plates were incubated at room temperature for 15 minutes. 5 μL substrate working solution was added to each well to initiate reaction. Final ACC2 reaction concentrations consist of: 5 nM ACC2, 20 μM ATP, 20 μM acetyl-CoA, 12 mM NaHCO3, 0.01% Brij35, 2 mM DTT, 5% DMSO, test compound concentrations: 30 μM, 10 μM, 3.33 μM, 1.11 μM, 0.37 μM, 0.123 μM, 0.0411 μM, 0.0137 μM, 0.00457 μM, 0.00152 μM, and 0.00051 μM. Plates were incubated at room temperature for 60 minutes. 10 μL ADP glo reagent was added. Plates were incubated at room temperature for 40 minutes. 20 μL kinase detection reagent was added. Plates were incubated at room temperature for 40 minutes, and then read on a Perkin Elmer EnVision 2104 plate reader for luminescence as Relative Light Units (RLU).
Data for each concentration, as well as the positive and negative controls were averaged, and the standard deviation calculated. Percent inhibition was calculated by the formula: 100×(average negative control−compound)/(average negative control−average positive control). The IC50 for each compound was calculated by fitting the data with a non-linear regression equation: Y=Bottom+(Top−Bottom)/(1+10 ((Log IC50−X)*HillSlope)), where X is the log of compound concentration and Y is percent inhibition.

[11] = Table 3a, ATCC 6258, 3 replicates, MIC recorded at 48 h, read-out: MIC, C. krusei ATCC 6258
[12] = Table 3b (additional results), ATCC 6258, 3 replicates, MIC recorded at 48 h, read-out: MIC, C. krusei ATCC 6258
[13] = Table 3a, ATCC 22019, 3 replicates, MIC recorded at 48 h, read-out: MIC, C. parapsilosis ATCC 22019
[14] = Table 3b (additional results), ATCC 22019, 3 replicates, MIC recorded at 48 h, read-out: MIC, C. parapsilosis ATCC 22019
[15] = Botrtyis cinerea, growth inhibition at 48 hours vs 2% DMSO control, read-out: Concentration at 90% Inhibition Bc
[16] = Botrtyis cinerea, growth inhibition vs 2% DMSO control at 48 hours, read-out: Concentration at 90% Inhibition Bc
[17] = Fusarium moniliforme, growth inhibition at 48 hours vs 2% DMSO control
[18] = Fusarium moniliforme, growth inhibition vs 2% DMSO control at 48 hours
[19] = growth inhibition at 48 hours vs 2% DMSO control, read-out: Concentration at 90% Inhibition Fv
[20] = growth inhibition vs 2% DMSO control at 48 hours, read-out: Concentration at 90% Inhibition Fv
[21] = growth inhibition at 48 hours vs 2% DMSO control, read-out: Concentration at 90% Inhibition Pc
[22] = growth inhibition vs 2% DMSO control at 48 hours, read-out: Concentration at 90% Inhibition Pc
[23] = mycelial plugs, growth inhibition at 48 hours vs 2% DMSO control, read-out: Concentration at 90% Inhibition Rs
[24] = mycelial plugs, growth inhibition vs 2% DMSO control at 48 hours, read-out: Concentration at 90% Inhibition Rs
[25] = Septoria tritici, growth inhibition at 48 hours vs 2% DMSO control, read-out: Concentration at 90% Inhibition St
[26] = Septoria tritici, growth inhibition vs 2% DMSO control at 48 hours, read-out: Concentration at 90% Inhibition St

Sequence of human (hACC2) (O00763 whole entry): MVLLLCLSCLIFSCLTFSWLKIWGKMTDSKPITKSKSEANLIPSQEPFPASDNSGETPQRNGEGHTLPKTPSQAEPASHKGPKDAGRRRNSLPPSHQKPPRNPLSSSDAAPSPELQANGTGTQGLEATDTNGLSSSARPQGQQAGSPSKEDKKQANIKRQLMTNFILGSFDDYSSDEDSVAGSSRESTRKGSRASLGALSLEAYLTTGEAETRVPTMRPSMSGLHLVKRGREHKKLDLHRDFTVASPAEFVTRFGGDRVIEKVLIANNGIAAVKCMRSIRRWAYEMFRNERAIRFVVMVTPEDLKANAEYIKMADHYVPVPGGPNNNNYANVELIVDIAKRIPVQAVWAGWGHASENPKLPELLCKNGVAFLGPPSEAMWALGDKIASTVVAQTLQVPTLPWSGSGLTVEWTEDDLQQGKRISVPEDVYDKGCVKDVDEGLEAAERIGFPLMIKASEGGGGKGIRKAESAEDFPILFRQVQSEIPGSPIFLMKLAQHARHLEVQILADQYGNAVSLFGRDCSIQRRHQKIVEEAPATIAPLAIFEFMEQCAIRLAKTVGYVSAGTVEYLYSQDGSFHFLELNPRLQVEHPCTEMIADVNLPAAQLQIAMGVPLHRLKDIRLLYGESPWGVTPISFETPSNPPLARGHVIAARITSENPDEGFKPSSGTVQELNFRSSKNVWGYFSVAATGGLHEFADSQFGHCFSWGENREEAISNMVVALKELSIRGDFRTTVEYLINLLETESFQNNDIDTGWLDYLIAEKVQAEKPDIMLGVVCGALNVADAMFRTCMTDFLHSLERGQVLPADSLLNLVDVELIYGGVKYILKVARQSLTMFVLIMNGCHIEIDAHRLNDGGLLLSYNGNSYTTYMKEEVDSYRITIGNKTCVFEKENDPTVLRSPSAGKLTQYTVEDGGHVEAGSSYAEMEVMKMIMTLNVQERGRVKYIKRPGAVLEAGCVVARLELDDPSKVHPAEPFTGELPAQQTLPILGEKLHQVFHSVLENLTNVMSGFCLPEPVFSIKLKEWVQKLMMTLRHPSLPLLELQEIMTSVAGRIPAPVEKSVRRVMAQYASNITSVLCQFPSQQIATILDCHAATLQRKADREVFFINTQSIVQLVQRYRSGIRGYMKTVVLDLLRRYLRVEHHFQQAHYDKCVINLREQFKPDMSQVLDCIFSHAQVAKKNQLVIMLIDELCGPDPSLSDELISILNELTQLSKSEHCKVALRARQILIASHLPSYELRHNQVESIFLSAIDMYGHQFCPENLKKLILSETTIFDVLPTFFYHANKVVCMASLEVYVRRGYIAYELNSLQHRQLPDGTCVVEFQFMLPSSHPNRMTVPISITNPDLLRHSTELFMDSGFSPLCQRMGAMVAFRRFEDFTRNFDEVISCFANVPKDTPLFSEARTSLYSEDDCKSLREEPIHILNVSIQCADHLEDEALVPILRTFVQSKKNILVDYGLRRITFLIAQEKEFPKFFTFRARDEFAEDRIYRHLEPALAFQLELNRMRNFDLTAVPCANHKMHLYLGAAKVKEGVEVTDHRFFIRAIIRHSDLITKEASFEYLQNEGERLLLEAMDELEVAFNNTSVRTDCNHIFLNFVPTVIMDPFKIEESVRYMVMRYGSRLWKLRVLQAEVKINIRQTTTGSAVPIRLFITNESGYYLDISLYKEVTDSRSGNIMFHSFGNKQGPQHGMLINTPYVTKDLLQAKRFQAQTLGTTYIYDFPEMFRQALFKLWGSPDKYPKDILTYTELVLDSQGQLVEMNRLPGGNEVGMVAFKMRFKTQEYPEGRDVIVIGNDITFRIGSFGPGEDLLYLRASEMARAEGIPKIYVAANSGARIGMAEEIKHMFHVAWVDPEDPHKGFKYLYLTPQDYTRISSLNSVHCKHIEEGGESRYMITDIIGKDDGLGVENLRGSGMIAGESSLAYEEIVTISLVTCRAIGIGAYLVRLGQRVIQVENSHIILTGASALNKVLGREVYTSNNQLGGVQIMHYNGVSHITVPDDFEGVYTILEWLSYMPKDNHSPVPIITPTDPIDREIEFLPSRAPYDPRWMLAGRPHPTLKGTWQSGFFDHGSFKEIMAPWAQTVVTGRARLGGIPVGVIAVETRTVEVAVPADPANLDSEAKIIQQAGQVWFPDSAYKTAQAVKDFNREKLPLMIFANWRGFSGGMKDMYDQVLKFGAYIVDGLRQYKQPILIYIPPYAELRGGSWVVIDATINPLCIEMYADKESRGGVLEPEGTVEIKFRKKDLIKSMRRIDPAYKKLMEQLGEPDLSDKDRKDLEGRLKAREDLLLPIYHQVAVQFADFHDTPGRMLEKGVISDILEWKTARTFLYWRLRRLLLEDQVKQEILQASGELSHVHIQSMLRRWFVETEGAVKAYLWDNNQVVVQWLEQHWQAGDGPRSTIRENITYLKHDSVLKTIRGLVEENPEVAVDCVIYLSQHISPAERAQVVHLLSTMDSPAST

SMILES | IC50 ([1]; Table 2a) | IC50 ([1]; Table 2b, additional results) | MIC [2, 11] | MIC [2, 12] | MIC [3, 13] | MIC [3, 14] | IC90 [4, 15] | IC90 [4, 16] | IC90 [5, 17] | IC90 [5, 18] | IC90 [6, 19] | IC90 [6, 20] | IC90 [7, 21] | IC90 [7, 22] | IC90 [8, 23] | IC90 [8, 24] | IC90 [9, 25] | IC90 [9, 26] | IC50 ([10]; Table 2a) | IC50 ([10]; Table 2b, additional results) | also measured
COc1ccc(F)cc1[C@H](Cn1c(=O)n([C@@H](C)C(=O)N(C)C(C)C)c(=O)c2c(C)c(-n3nccn3)sc21)OCCO [Compound I-78, (S)-2-(1-((R)-2-(5-fluoro-2-methoxyphenyl)-2-(2-hydroxy-ethoxy)ethyl)-5-methyl-2,4-dioxo-6-(2H-1,2,3-triazol-2-yl)-1,4-dihydrothieno[2,3-d]pyrimidin-3(2H)-yl)-N-isopropyl-N-methylpropanamide] | 10 to 40 nM | 10 to 40 nM | 2.1 to 4 µg/mL (≈ 3.57 to 6.8 µM) | 1.01 to 2 µg/mL (≈ 1.72 to 3.4 µM) | 2.1 to 4 µg/mL (≈ 3.57 to 6.8 µM) | 2.01 to 4 µg/mL (≈ 3.41 to 6.8 µM) | 0.4 µg/mL (≈ 0.68 µM) | 0.4 µg/mL (≈ 0.68 µM) | 0.08 µg/mL (≈ 0.136 µM) | 0.08 µg/mL (≈ 0.136 µM) | 0.4 µg/mL (≈ 0.68 µM) | 0.4 µg/mL (≈ 0.68 µM) | > 50 µg/mL | > 50 µg/mL | 0.08 µg/mL (≈ 0.136 µM) | 0.08 µg/mL (≈ 0.136 µM) | 10 µg/mL (≈ 17 µM) | > 50 µg/mL | 1 to 5 nM | 0.3 to 1 nM | –
COCCO[C@@H](Cn1c(=O)n(CC(=O)N2CCCC2)c(=O)c2c(C)c(-n3nccn3)sc21)c1cc(F)ccc1OC [Compound I-79, (R)-1-(2-(5-fluoro-2-methoxyphenyl)-2-(2-methoxy-ethoxy)ethyl)-5-methyl-3-(2-oxo-2-(pyrrolidin-1-yl)ethyl)-6-(2H-1,2,3-tria-zol-2-yl)thieno[2,3-d]pyrimidine-2,4(1H,3H)-dione] | 10 to 40 nM | 10 to 40 nM | 2.1 to 4 µg/mL (≈ 3.58 to 6.82 µM) | > 4.01 µg/mL | 2.1 to 4 µg/mL (≈ 3.58 to 6.82 µM) | 2.01 to 4 µg/mL (≈ 3.43 to 6.82 µM) | 2 µg/mL (≈ 3.41 µM) | 2 µg/mL (≈ 3.41 µM) | 0.4 µg/mL (≈ 0.682 µM) | 0.4 µg/mL (≈ 0.682 µM) | 2 µg/mL (≈ 3.41 µM) | 10 µg/mL (≈ 17 µM) | > 50 µg/mL | > 50 µg/mL | 10 µg/mL (≈ 17 µM) | > 50 µg/mL | > 50 µg/mL | > 50 µg/mL | 1 to 5 nM | 1 to 5 nM | –
COCCO[C@@H](Cn1c(=O)n(CC(=O)NC(C)C)c(=O)c2c(C)c(-n3nccn3)sc21)c1cc(F)ccc1OC [Compound I-80, (R)-2-(1-(2-(5-fluoro-2-methoxyphenyl)-2-(2-methoxy-ethoxy)ethyl)-5-methyl-2,4-dioxo-6-(2H-1,2,3-triazol-2-yl)-1,4-dihydro-thieno[2,3-d]pyrimidin-3(2H)-yl)-N-isopropylacetamide] | > 40 nM | > 40 nM | – | – | – | – | – | – | – | – | – | – | – | – | – | – | – | – | 1 to 5 nM | 1 to 5 nM | MIC ([2]; read-out: MIC, C. krusei ATCC 6258, Table 3a, 3 replicates, MIC recorded at 48 h): 2.1 to 4 µg/mL (≈ 3.65 to 6.96 µM); MIC ([2]; read-out: MIC, C. krusei ATCC 6258, Table 3b (additional results), 3 replicates, MIC recorded at 48 h): > 4.01 µg/mL; MIC ([3]; read-out: MIC, C. parapsilosis ATCC 22019, Table 3a, 3 replicates, MIC recorded at 48 h): 2.1 to 4 µg/mL (≈ 3.65 to 6.96 µM); MIC ([3]; read-out: MIC, C. parapsilosis ATCC 22019, Table 3b (additional results), 3 replicates, MIC recorded at 48 h): 2.01 to 4 µg/mL (≈ 3.5 to 6.96 µM); IC90 ([4]; read-out: Concentration at 90% Inhibition Bc, Botrtyis cinerea, growth inhibition at 48 hours vs 2% DMSO control): > 50 µg/mL; IC90 ([4]; read-out: Concentration at 90% Inhibition Bc, Botrtyis cinerea, growth inhibition vs 2% DMSO control at 48 hours): > 50 µg/mL; Concentration at 90% Inhibition Fm [5, 17]: AA (compound concentration of 0.08 ppm at 90% inhibition of fungal pathogens); IC90 [5]: 0.08 µg/mL (≈ 0.139 µM); IC90 ([6]; read-out: Concentration at 90% Inhibition Fv, Fusarium virguliforme, growth inhibition at 48 hours vs 2% DMSO control): 2 µg/mL (≈ 3.48 µM); IC90 ([6]; read-out: Concentration at 90% Inhibition Fv, Fusarium virguliforme, growth inhibition vs 2% DMSO control at 48 hours): 10 µg/mL (≈ 17.4 µM); IC90 ([7]; read-out: Concentration at 90% Inhibition Pc, Phytophthora capsici, growth inhibition at 48 hours vs 2% DMSO control): > 50 µg/mL; IC90 ([7]; read-out: Concentration at 90% Inhibition Pc, Phytophthora capsici, growth inhibition vs 2% DMSO control at 48 hours): > 50 µg/mL; IC90 ([8]; read-out: Concentration at 90% Inhibition Rs, Rhizoctonia solani, mycelial plugs, growth inhibition at 48 hours vs 2% DMSO control): 10 µg/mL (≈ 17.4 µM); IC90 ([8]; read-out: Concentration at 90% Inhibition Rs, Rhizoctonia solani, mycelial plugs, growth inhibition vs 2% DMSO control at 48 hours): > 50 µg/mL; IC90 ([9]; read-out: Concentration at 90% Inhibition St, Septoria tritici, growth inhibition at 48 hours vs 2% DMSO control): > 50 µg/mL; IC90 ([9]; read-out: Concentration at 90% Inhibition St, Septoria tritici, growth inhibition vs 2% DMSO control at 48 hours): > 50 µg/mL
